From patent publication US6465258B1, “FXR receptor-mediated modulation cholesterol metabolism” (Tularik, Inc., priority 1999, dated 2002)
“Also recorded” adds a separate entry of the source.

Key:
LXRα [1] = target: T1, LXRα (Homo sapiens, UniProt Q13133); assay: FRET (HTRF) LXRα receptor control; format: binding; settings: FIG. 5B bottom panel
T1 sequence (Q13133 1-447): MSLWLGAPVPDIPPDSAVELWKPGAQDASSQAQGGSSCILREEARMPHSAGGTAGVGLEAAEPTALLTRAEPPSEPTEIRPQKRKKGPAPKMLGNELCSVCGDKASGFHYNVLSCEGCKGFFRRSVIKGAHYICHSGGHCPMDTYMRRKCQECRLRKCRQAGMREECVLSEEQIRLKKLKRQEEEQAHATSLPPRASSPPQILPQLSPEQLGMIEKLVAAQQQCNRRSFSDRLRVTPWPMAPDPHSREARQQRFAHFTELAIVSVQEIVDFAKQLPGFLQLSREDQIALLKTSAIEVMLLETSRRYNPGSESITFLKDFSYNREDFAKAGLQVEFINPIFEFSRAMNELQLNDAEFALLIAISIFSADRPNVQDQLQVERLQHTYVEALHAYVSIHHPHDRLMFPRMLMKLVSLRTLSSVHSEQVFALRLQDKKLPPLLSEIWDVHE

LXRα [2] = target: T1, LXRα; assay: ELISA peptide sensor assay, LXRα control; format: binding; settings: FIG. 5C bottom panel
Excerpt: A peptide sensor was used.

FXR / cyp7a promoter = settings: HepG2 cells
[3] = system: HNF4α, LXRα, RXRα and LXRβ ligand-binding domains fused to Gal4 DBD; assay: GAL4 DBD fusions with LBDs of other nuclear receptors, luciferase reporter in HepG2 cells; format: cell-based; settings: 50 μM CDCA, FIG. 1A
full-length FXR = target: T2, full-length FXR (Homo sapiens, UniProt Q96RI1); assay: pGL3 3X FXRE luciferase reporter with full-length FXR in HepG2 cells; format: cell-based; settings: panel of bile acids, FIG. 4C
T2 construct: a plasmid expressing full-length FXR (PFXR); expressed in transfected cells; host or cells: HepG2
T2 sequence (Q96RI1 1-486): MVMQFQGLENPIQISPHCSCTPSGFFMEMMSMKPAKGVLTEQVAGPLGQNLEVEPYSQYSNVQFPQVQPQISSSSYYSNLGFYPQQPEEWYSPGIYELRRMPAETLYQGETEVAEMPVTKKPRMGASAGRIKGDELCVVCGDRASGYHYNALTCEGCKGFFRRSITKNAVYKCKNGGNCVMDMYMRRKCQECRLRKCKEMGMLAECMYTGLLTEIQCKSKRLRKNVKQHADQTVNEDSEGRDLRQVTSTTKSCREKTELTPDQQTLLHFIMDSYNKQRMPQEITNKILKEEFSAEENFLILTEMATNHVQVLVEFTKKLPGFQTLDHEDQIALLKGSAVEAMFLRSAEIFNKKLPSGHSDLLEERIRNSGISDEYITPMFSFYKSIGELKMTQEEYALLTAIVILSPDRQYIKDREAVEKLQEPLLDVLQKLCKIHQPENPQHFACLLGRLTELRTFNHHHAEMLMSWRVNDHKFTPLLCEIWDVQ
Excerpt: The ability of different bile acids and derivatives to activate FXR-mediated transactivation was also examined.

## C[C@H](CCC1OC1(C)C)[C@H]1CC[C@H]2[C@@H]3CC=C4C[C@@H](O)CC[C@]4(C)[C@H]3CC[C@]12C (stereo partly drawn) [24,25 epoxycholesterol]
LXRα [1]
  binding of LXRα receptor control by FRET: affected
LXRα [2]
  binding of sensor peptide to LXRα control (ELISA): increased binding

## C[C@H](CCC(=O)O)[C@H]1CC[C@H]2[C@@H]3[C@H](O)C[C@@H]4C[C@H](O)CC[C@]4(C)[C@H]3CC[C@]12C [CDCA, chenodeoxycholic acid]
FXR / cyp7a promoter; 10 μM CDCA, FXR vs CPF, HNF4α, LXRα, RXRα, FIG. 2A
  suppression of CYP7 expression by nuclear receptors in presence of CDCA: Only FXR suppressed CYP7 expression
FXR / cyp7a promoter; panel of bile acids, FIG. 4D
  FXR-mediated suppression of CYP7 expression, rank among bile acids: highest level of suppression; also recorded: largest repression
[3]
  activation of ligand binding domains of other nuclear receptors fused to GAL4 DBD: not activated

## CC(CCC(=O)NCC(=O)O)C1CCC2C3C(O)CC4CC(O)CCC4(C)C3CCC12C (stereo not drawn) [GCDCA, glycochenodeoxycholic acid]
full-length FXR
  induction of luciferase reporter activity (FXR-mediated transactivation), rank among bile acids: greatest induction
